Measurements taken from PMC10045593, “Ubiquitin-Specific Proteases as Potential Therapeutic Targets in Bladder Cancer—In Vitro Evaluation of Degrasyn and PR-619 Activity Using Human and Canine Models” (Biomedicines, 2023).

Key:
K9TCC-PU-NK cell line = assay: Annexin V-FITC/PI apoptosis flow cytometry; type: cell-based, canine; conditions: 24 h
Method: (§1) To assess the level of apoptosis induced by Degrasyn and PR-619, cells were seeded at a density of 1 × 10^5/mL in 96-well plates (TPP, Trasadingen, Switzerland) and incubated for 24 h with increasing concentrations of compounds. Cells were then collected, suspended in a binding buffer, and stained with Annexin V-FITC for 10 min at room temperature. Subsequently, PI was added, and flow cytometric analysis was immediately performed using a flow cytometers (FACS Calibur, Becton Dickinson, Biosciences, San Jose, CA, USA; CytoFlex, Beckman Coulter, CA, USA). CellQuest 3.lf. (Becton Dickinson, San Jose, CA, USA) and CytExpert 2.4 (Beckman Coulter, CA, USA) software were used for data analysis.

RDSVS-TCC1 cell line = assay: Annexin V-FITC/PI apoptosis flow cytometry; type: cell-based, canine; conditions: RDSVS-TCC1, 24 h; for pro-apoptotic effect (number of apoptotic cells vs control): increasing concentrations up to approximately IC50
Method: as §1

| Compound | percentage of early and late apoptotic cells (K9TCC-PU-NK cell line; 2.5 μM) [%] | percentage of early and late apoptotic cells (RDSVS-TCC1 cell line; 2.5 μM) [%] | pro-apoptotic effect (number of apoptotic cells vs control) (RDSVS-TCC1 cell line) | percentage of early and late apoptotic cells (K9TCC-PU-NK cell line; 5 μM) [%] | pro-apoptotic effect (number of apoptotic cells vs control) (K9TCC-PU-NK cell line; increasing concentrations up to approximately IC50) | percentage of early and late apoptotic cells (RDSVS-TCC1 cell line; 5 μM) [%] |
| --- | --- | --- | --- | --- | --- | --- |
| CCC[C@H](NC(=O)/C(C#N)=C/c1cccc(Br)n1)c1ccccc1 [Degrasyn] | 11.8 ± 3.4 | 42.4 ± 2.3 | significant increase |  |  |  |
| N#CSc1cc(SC#N)c(N)nc1N [PR-619] |  |  | did not show a significant pro-apoptotic effect | 8.4 ± 0.8 | did not show a significant pro-apoptotic effect | 17.2 ± 6.5 |
